The test system of data set [1] is Mus musculus. In words: In vivo inhibition of KDM5 in nude mouse xenografted with human MCF7 cells assessed as increase in H3K4me3 level in tumor at 75 mg/kg, po qd for 5 days measured at 1 hrs post last dose by Western blot analysis relative to control. Format: functional. (In general: Xenograft models place foreign cells or tissue in a host animal.)
The target of data set [2] is T1, Lysine-specific demethylase 4B (Homo sapiens, UniProt O94953).
T1 sequence (O94953 whole entry): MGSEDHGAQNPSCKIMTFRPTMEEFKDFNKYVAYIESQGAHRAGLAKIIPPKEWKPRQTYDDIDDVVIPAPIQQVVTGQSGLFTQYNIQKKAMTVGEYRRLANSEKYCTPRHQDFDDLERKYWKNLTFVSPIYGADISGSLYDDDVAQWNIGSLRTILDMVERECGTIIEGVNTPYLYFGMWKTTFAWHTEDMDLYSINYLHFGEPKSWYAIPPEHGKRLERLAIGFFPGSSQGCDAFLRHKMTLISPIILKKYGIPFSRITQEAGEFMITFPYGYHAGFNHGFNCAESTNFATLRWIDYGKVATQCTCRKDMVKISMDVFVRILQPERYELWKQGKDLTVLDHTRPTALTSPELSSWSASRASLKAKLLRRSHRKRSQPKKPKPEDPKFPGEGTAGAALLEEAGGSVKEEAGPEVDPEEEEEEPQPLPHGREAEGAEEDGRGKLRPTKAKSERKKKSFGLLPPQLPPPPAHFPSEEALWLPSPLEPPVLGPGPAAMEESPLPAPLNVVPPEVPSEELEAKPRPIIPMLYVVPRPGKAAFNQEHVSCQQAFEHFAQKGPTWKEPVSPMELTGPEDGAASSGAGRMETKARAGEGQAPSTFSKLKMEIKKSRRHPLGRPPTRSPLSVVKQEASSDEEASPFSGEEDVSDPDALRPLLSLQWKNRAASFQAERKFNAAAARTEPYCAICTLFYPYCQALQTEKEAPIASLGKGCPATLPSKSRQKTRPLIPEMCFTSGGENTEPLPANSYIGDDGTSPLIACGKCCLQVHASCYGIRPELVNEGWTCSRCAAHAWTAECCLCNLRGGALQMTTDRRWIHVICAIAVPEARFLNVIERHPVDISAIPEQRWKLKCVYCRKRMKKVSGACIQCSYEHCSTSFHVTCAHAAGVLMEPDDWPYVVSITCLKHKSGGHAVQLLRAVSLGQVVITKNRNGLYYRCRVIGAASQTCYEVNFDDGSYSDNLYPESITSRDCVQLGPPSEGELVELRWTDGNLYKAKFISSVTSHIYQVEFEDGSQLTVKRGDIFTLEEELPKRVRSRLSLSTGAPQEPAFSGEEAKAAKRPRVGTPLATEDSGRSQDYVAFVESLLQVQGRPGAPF
The experiment in a line: Inhibition of KDM4B (unknown origin).

Data set [3] has as its system Mus musculus. The experiment in a line: In vivo inhibition of KDM5 in nude mouse xenografted with human MCF7 cells assessed as increase in H3K4me3 level in tumor at 75 mg/kg, po qd for 5 days measured at 0.5 hrs post last dose by Western blot analysis relative to control. Format: functional.
Data set [4] in a line: Kinetic solubility of the compound. Format: physicochemical.
For data set [5], the target named is T2, Lysine-specific demethylase 2A (Homo sapiens, UniProt Q9Y2K7).
T2 sequence (Q9Y2K7 whole entry): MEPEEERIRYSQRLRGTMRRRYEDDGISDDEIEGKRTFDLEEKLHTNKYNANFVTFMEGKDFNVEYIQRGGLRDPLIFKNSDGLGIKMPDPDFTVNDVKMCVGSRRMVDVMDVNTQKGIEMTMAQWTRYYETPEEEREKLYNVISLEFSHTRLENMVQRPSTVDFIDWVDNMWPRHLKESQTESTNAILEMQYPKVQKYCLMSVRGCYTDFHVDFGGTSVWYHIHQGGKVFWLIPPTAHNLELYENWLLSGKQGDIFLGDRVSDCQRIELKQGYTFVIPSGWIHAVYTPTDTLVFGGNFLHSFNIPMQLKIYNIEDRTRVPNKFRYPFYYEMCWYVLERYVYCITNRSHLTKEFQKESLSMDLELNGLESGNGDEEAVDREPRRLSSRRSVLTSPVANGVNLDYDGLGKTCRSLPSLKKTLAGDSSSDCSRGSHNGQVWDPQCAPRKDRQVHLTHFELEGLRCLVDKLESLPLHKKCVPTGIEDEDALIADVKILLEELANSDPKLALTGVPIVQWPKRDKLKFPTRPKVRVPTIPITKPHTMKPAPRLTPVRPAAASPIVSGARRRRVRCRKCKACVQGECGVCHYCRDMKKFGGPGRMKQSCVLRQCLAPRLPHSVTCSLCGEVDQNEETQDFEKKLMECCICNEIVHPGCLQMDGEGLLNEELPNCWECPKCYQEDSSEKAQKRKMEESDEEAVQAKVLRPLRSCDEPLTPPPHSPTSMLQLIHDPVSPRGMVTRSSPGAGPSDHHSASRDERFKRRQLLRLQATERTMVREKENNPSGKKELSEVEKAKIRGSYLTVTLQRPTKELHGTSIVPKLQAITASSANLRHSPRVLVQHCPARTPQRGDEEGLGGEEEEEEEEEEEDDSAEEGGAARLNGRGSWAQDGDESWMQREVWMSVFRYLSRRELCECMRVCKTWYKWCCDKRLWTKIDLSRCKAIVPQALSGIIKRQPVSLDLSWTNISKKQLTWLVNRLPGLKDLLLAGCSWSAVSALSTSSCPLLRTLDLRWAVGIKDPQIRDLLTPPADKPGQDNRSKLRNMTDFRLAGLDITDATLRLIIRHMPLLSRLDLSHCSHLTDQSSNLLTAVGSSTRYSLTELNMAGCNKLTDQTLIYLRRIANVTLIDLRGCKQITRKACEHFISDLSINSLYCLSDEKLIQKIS
In words: Inhibition of KDM2A (unknown origin).

For data set [6], the target named is T3, Lysine-specific demethylase 4E (Homo sapiens, UniProt B2RXH2).
T3 sequence (B2RXH2 whole entry): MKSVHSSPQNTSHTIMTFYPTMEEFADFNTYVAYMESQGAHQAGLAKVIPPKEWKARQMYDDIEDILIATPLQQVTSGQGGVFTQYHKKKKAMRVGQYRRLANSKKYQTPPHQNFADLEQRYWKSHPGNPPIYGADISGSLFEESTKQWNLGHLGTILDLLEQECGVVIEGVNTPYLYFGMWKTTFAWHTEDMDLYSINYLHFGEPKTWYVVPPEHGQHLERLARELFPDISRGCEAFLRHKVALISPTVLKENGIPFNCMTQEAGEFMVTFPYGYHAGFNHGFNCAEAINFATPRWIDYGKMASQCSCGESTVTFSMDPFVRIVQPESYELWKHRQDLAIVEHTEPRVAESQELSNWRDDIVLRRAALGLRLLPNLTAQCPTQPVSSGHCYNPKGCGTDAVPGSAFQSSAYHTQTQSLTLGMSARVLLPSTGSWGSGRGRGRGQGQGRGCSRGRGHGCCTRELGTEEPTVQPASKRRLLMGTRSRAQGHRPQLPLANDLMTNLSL
In words: Inhibition of KDM4E (unknown origin).

Data set [7] addresses ATP-dependent translocase ABCB1 (Homo sapiens, UniProt P08183). In words: Inhibition of MDR1 (unknown origin). The class given is ADME.

Molecules are shown by their SMILES. Bounds are passed on as bounds.

ATP-dependent translocase ABCB1, sequence (P08183 whole entry): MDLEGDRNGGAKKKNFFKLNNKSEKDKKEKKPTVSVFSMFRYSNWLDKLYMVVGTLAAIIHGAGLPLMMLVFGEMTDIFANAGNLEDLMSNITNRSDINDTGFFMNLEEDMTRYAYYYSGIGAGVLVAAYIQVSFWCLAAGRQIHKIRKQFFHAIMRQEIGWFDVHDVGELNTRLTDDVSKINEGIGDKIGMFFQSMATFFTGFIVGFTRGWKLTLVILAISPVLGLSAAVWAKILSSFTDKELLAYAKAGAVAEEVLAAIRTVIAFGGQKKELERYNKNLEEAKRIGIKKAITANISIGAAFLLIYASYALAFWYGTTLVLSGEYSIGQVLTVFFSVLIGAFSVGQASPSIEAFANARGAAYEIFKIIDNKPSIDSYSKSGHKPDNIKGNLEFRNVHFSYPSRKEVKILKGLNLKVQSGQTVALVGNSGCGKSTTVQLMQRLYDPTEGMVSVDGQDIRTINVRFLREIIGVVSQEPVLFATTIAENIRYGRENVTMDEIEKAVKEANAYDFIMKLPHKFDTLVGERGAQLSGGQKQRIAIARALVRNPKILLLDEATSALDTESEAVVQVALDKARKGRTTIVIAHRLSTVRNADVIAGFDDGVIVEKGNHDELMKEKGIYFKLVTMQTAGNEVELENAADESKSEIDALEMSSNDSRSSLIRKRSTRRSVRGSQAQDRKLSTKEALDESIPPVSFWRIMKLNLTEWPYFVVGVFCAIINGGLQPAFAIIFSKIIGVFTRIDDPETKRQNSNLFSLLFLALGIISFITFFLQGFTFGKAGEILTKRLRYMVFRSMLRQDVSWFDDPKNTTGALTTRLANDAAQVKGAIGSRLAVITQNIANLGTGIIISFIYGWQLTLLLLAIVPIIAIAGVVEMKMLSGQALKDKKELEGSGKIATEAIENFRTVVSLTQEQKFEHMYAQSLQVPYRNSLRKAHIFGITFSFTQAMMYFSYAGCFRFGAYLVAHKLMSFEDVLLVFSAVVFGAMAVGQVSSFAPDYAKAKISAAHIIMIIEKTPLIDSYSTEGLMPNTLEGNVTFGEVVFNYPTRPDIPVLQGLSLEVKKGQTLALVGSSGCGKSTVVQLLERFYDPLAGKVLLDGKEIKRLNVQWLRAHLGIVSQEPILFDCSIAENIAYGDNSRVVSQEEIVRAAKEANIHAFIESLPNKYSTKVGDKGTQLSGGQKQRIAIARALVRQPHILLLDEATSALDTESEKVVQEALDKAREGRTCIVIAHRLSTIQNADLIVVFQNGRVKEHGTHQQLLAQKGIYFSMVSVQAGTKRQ

With `Cc1cc(Cl)ccc1COc1ccnn1-c1cc(C(=O)O)ccn1`, the “fold change (FC)” value is greater than 4 in the data set with Mus musculus [1] and greater than 2 in the data set with Mus musculus [3]. Further, the IC50 (in general, the concentration needed to halve the response being measured) came out at 170 nM in data set [2], 820 nM in data set [5] and 160 nM in data set [6]. In data set [4], the Kinetic_solubility result is “Soluble”. Moreover, in data set [7], the “inhibition (INH)” value is recorded as “Not Active”.

The values above are taken from ChEMBL document CHEMBL4219204, “Structure-based design and discovery of potent and selective KDM5 inhibitors” (Bioorg Med Chem Lett, 2018).
